Laboratory results published in patent US20180140578A1, “METHODS AND COMPOSITIONS FOR THE DIAGNOSIS AND SELECTIVE TREATMENT OF CANCER” (Board of Regents of the University of Texas System, priority 2016, published 2018).
Entries after “also recorded” stand apart in the source; their conditions may differ.

How the values were obtained:
[1] = system: HCT-116 cells; assay: Cell viability assay (CellTiter-Glo); format: cell-based, human; settings: Homo sapiens, read-out: concentration required to reduce the viability by 50% (IC50); parental HCT-116 cells
Protocol: The identity for all human cell lines in this study was confirmed by short tandem repeat (STR) analysis. In addition, all human cell lines were confirmed to be mycoplasma free using a PCR based assay (Genatlantis). HCT-116 cells (ATCC) were grown in DMEM medium with 10% FBS and 2 mM L-glutamine. Lenti-X 293T cells (Clontech) were cultured in DMEM medium with 10% FBS and 2 mM L-glutamine. H1155 cells (a gift from Adi Gazdar and John Minna, UT Southwestern) were cultured in RPMI media with 5% FBS and 2 mM L-glutamine. SF9 cells (a gift from Hongtao Yu, UT Southwestern) were cultured in SF900 II serum free media (Life Technologies).
(§1) 12-point dose responses were performed on 96-well assay plates with cell plating (1500-4000 cell per well) on day 1, compound addition on day 2, and survival measurement on day 5. Compounds were diluted in DMSO before adding to the cells. Final DMSO concentration was 0.5%. Cell survival assay was performed using CellTiter-Glo Luminescent Cell Viability Assay kit (Promega) that measures cellular ATP content. Luminescence was recorded by EnVison multimode plate reader (Perkin Elmer). IC50 was determined with GraphPad Prism using baseline correction (by normalizing to DMSO control), the asymmetric (five parameter) equation and least squares fit.

[2] = system: DCAF15−/− H1155 cells; assay: Cell viability assay, DCAF15−/− cells; format: cell-based, human; settings: at concentrations as high as 50 μM
Protocol: as §1
Two independent guide RNAs targeting DDB1, DDA1, DCAF15 were cloned into PX459. 0.2 million H1155 RBM39-AcGFP cells were transfected with PX459 sgRNA constructs and selected with 2 μg/ml puromycin to enrich for transfected cells. […] Cells were then trypsinized and the expression of RBM39-AGFP was quantified with flow cytometry. H1155 cells transfected with DCAF15 guide RNA were sparsely plated on 10 cm^2 plates and clones were isolated. Genomic DNA sequence flanking the cut site were amplified and sequenced to identify DCAF15−/− clones.

[3] = system: tumors derived from HCT-116 cells expressing RBM39 G268V; assay: Mouse xenograft model, HCT-116 RBM39 G268V; format: in vivo, Nod-Scid IL-2Rγ KO mice
Protocol: All animal work was approved by the Institutional Animal Care and Use Committee at UTSW. UTSW is accredited by the Association for Assessment and Accreditation of Laboratory Animal Care International (AAALAC). Animals were obtained from the UTSW Breeding Core Facility. Nod-Scid IL-2Rγ KO mice were implanted with 5 million parental HCT-116 cells or HCT-116 cells expressing RBM39 G268V in a volume of 0.1 ml in the left flank. Tumor volumes were measured every 2-4 days with calipers. Volume is calculated as (L*W^2)*3.14)/6.

[4] = molecular target: T1, RBM39-3xFLAG with DDA1, DDB1, CUL4A (Homo sapiens, UniProt Q14498+Q66K64); assay: In vitro formation of RBM39-CUL4-DCAF15 complex in lysates; format: binding; settings: indisulam dose-dependent manner
T1 construct: endogenous in cells; host or cells: HCT-116 RBM39-3xFLAG knock-in cells (treated cells in A90)
Protocol: First, we reconstituted formation of the RBM39-CUL4-DCAF15 complex in vitro (FIG. 4, panel A).
Anti-Flag M2 antibody (Sigma-Aldrich) was coupled to Dynabeads M-270 epoxy beads (Life Technologies) at the ratio of 10 μg of antibody/mg beads. […] Frozen cells were then pulverized in the a cryomill (Retsch) with one 25 mm steel ball and five cycles of three min at 25 Hz with intermittent cooling in liquid nitrogen. […] The lysates were centrifuged at 8000 g for 5 min at 4° C. 12 mg of conjugated Anti-Flag magnetic beads were mixed with clarified lysates for 5 min at 4° C. on a rotating platform, followed by three washes with IP buffer. Bound proteins were eluted with 1 mg/ml 3xFLAG peptide, followed by SDS-PAGE on a 10% Bis Tris gel. After brief electrophoresis, bands containing all the proteins were cut with clean blades. For western blotting of co-immunoprecipitated proteins, anti-DDA1 (ProteinTech, 14995-1-AP, 1:1000), anti-DDB1 (Abcam, ab109027, 1;10000), anti-CUL4A (Cell Signaling, 2699, 1:1000), anti-CUL4B (ProteinTech, 12916-1-AP, 1:1000) were used.

NS(=O)(=O)c1ccc(S(=O)(=O)Nc2cccc3c(Cl)c[nH]c23)cc1 [Indisulam, indisulam]
IC50 [1]: 560 nM
sensitivity of DCAF15−/− cells [2]: insensitive
tumor response ([3]; 25 mg/kg indisulam intravenous once a day for eight days, RBM39 G268V): grew at a rate indistinguishable from that of the control group; also recorded: resistant
Average maximal weight loss from start of therapy to 1 day post final dose ([3]; G268V xenograft, 25 mg/kg once a day for eight days): 8.4%
co-purification of DDA1, DDB1, CUL4A with RBM39-3xFLAG in lysates [4]: co-purified
